Results from US20240398786A1, “7-ETHYL-10-HYDROXY-CAMPTOTHECIN (SN-38) ALBUMIN CONJUGATES FOR TREATMENT OF CANCERS” (Ohio State Innovation Foundation, priority 2021, published 2024).

What was measured:
[1] = system: MP2-shCtrl/shCav-1 tumors; assay: MP2-shCtrl/shCav-1 flank xenografts in athymic nude mice; format: in vivo; settings: SSH20 10 mg/kg or molar equivalent of irinotecan, intravenous retro-orbital
Experimental: (§1) Briefly, 180 μL of SSH20 was added to 1620 μL of pooled human serum off the clot (Innovative Research, Novi, MI) to form a 10% SSH20 solution, which was incubated at 37° C. Aliquots were collected at preset time points, a fixed amount of internal standard (10-hydroxycamptothecin, 10-HCPT) was added to each sample aliquot and the solutions were mixed thoroughly on vortex prior to protein precipitation by acetonitrile. Protein precipitates were pulled down by 17,000×g centrifugation for 5 minutes. The dissociated SN-38 in the supernatant was analyzed by reverse-phase HPLC, using parameters described above, detected by PDA at 368 nm. SN-38/internal standard peak ratios were correlated with an SN-38 standard curve (using the same preparation method) to obtain the concentrations of released SN-38. The plot of the kinetics of SN-38 release was generated by Prism, and the half-life was calculated by one-phase exponential association. […] To obtain a tumor growth curve, perpendicular diameter measurements of each tumor were measured every 1-5 days from the first day of injection with digital calipers, and volumes were calculated using the formula (L×W×W)/2. Weight and clinical signs of toxicity were monitored several times per week.

[2] = system: H23-shCtrl/shCav-1 tumors; assay: H23-shCtrl/shCav-1 flank xenografts in athymic nude mice; format: in vivo; settings: SSH20 10 mg/kg or molar equivalent of irinotecan, intravenous retro-orbital
Experimental: as §1

MP2 cell line = assay: Inhibitory activity of SN-38/HSA conjugates against the MP2 cell line; format: cell-based
Experimental: AlamarBlue proliferation assay was performed according to the manufacturer's instructions (BioRad Antibodies, Oxford, UK). Briefly, cells were seeded in 96-well plates in 4 replicates at a density of 100-300 cells per well in 100 μL medium and treated as described. Seventy-two hours after plating, alamarBlue reagent was added and incubated at 37° C. for 4-8 hours, and absorbance was measured at 570 and 600 nm.

[3] = system: MIA-PaCa-2 (MP2) shCtrl/shCav-1 cells; assay: Uptake by direct fluorescence in MP2 shCtrl vs shCav-1 cells; format: cell-based; settings: 250 nM pulsed 2 h
Experimental: (§2) Cells were pulsed either 1 hour with 0.1% FITC-HAS or 2 hours with 250 nM SN/38/SSH20 prior to fixation. When applicable, in order to remove membrane-bound albumin, two acid/salt washes were performed with 0.1M glycine and 0.1M NaCl, pH 3.02 for 2 minutes each, followed by two washes with phosphate buffer saline (PBS). Cells were then fixed with 2% paraformaldehyde for 15 minutes at room temperature and washed 1×PBS 2 times for 5 minutes each. Cells were incubated with 0.1% Triton-x-100 for 10 min on ice to permeabilize, then washed twice with 1×PBS prior to blocking with 3% bovine serum albumin in 1×PBS overnight at 4° C. In a humidified chamber, primary antibodies (1:50) in blocking buffer were added and incubated for 1 hour at 4° C., followed by three 10 minute rinses with blocking buffer. Secondary antibody (conjugated to Alexa Fluor 488, 1:1000) was added along with DAPI for 1 hour at room temperature. Cells were then rinsed, and coverslips were mounted onto slides and then sealed. Cells were then imaged with a confocal microscope with locked settings across the control and respective experimental conditions. For auto-fluorescence experiments with SN-30 and SSH20, images were taken at an emission wavelength of 543 nm. ImageJ was used to measure the fluorescence intensity of individual cells.

H23 shCtrl/shCav-1 cells = assay: Uptake by direct fluorescence in H23 shCtrl vs shCav-1 cells; format: cell-based; settings: 250 nM pulsed 2 h
Experimental: as §2

[4] = pharmaceutical solvents; cited from earlier work

SMILES	tumor growth rate [1]	tumor growth rate [2]	IC50 (MP2 cell line)	difference in SN-38 autofluorescent signal between shCtrl and shCav-1 cells [3]	difference in SN-38 autofluorescent signal between shCtrl and shCav-1 cells (H23 shCtrl/shCav-1 cells)	solubility, in words [4]
CCc1c2c(nc3ccc(OC(=O)N4CCC(N5CCCCC5)CC4)cc13)-c1cc3c(c(=O)n1C2)COC(=O)[C@]3(O)CC [irinotecan, Irinotecan]	not reduced	not reduced				
CCc1c2c(nc3ccc(O)cc13)-c1cc3c(c(=O)n1C2)COC(=O)[C@]3(O)CC [SN-38, 7-ethyl-10-hydroxy-camptothecin]			495 nM	no discernable difference	no discernable difference	virtually insoluble in any pharmaceutical solvent
